Measured values published in PMC9693575, “Isopropyl Amino Acid Esters Ionic Liquids as Vehicles for Non-Steroidal Anti-Inflammatory Drugs in Potential Topical Drug Delivery Systems with Antimicrobial Activity” (International Journal of Molecular Sciences, 2022).
Values after ≈ are worked out from the molar mass of the structure shown. Where two headings read alike, the source gives them in different places.

Experiments:
[1] = pKa / pKB by potentiometric acid-base titration and formation constant log(KS); details: for Log(KS) formation constant: calculated from pKA of acid and pKB of base
Procedure: Determination of formation constant pKs
Zabrze, Poland). For the measurement of pKA acids, 0.1 M NaOH was used. In order to
ester hydrochloride, HCl aqueous solution, was added in an amount that allowed reach-
After that, an acid-base titration was made out by adding dropwise 5 mM

Escherichia coli = assay: Disc diffusion antimicrobial susceptibility test, Escherichia coli; format: cell-based; parameters: key to Inhibition diameter: -: no growth of the organism
Procedure: (§1) The plates were incubated for 24 h at 37 °C.

Micrococcus Luteus = assay: Disc diffusion antimicrobial susceptibility test, Micrococcus luteus; format: cell-based; parameters: key to Inhibition diameter: -: no growth of the organism; details: for zone of inhibition at 600000 µg/mL: solution transferred to disc 600 mg cm^−3; for zone of inhibition at 800000 µg/mL: solution transferred to disc 800 mg cm^−3
[2] = n-octanol-water partition coefficient (logP), shake flask method; format: physicochemical
[3] = system: Staphylococcus epidermidis; assay: Disc diffusion antimicrobial susceptibility test, Staphylococcus epidermidis; format: cell-based; parameters: key to Inhibition diameter: -: no growth of the organism
Procedure: as §1

[4] = Thermogravimetric analysis (thermal stability); details: for TDTGmax, maximum decomposition temperature: DTG
Procedure: The thermal stabilities of the obtained NSAIDs isopropyl ester amino acid salts were investigated. […] The beginning of thermal degradation was evaluated based on the value of onset of the TG curve, which occurs in the first phase of the process. […]
Thermogravimetric analysis (TG)
Thermogravimetric analysis was carried out using Netzsch Proteus Thermal Analy- […]
Samples of 5–8 mg were loaded in Al2O3 […]
ment was performed in an air atmosphere (25 cm3min−1) with nitrogen flow (10 cm3min−1) […]
Differential scanning calorimetry (DSC)
Phase transformation temperatures were determined on a PerkinElmer DSC-7 (Rot-gau, Germany). The samples of 3–5 mg were loaded on the aluminum pan with a crimped lid. Measurements were carried out in a nitrogen atmosphere (20 cm3 min-1). The rate of heating/cooling was 5°C min-1. […]
tained for 30 min inside the furnace, then cooled to 0°C to condition the sample and the crucible. After that, heating was conducted to the specified temperature, followed by cool-ing. Unless otherwise stated, two complete cycles of heating and cooling were performed.
The specified maximum temperature was individual for each compound, determined from TG analysis, and it was at least 10°C lower than the onset decomposition tempera-ture. Temperatures reported from DSC data are curve peaks, the melting points being endothermic upon heating and crystallization point being exothermic upon cooling. Lead, indium, tin, and zinc were used as standards to calibrate the temperature. Indium was used for enthalpy measurement calibration. […]

physchem = assay: physchem
Source text: This study aims to compare the influence of amino acid structure on the physicochemical properties of NSAID salts with the isopropyl ester of amino acids.

[5] = Solubility in organic solvents (modified Vogel's method); details: 25 °C
[6] = solution transferred to disc 25 mg cm^−3
[7] = solution transferred to disc 50 mg cm^−3
[8] = solution transferred to disc 100 mg cm^−3
[9] = solution transferred to disc 200 mg cm^−3
[10] = solution transferred to disc 400 mg cm^−3
[11] = solution transferred to disc 600 mg cm^−3
[12] = solution transferred to disc 1000 mg cm^−3
[13] = Micrococcus luteus, 24 h, solution transferred to disc 100 mg cm^−3, read-out: Inhibition diameter
[14] = Micrococcus luteus, 24 h, solution transferred to disc 200 mg cm^−3, read-out: Inhibition diameter
[15] = Micrococcus luteus, 24 h, solution transferred to disc 400 mg cm^−3, read-out: Inhibition diameter
[16] = Micrococcus luteus, 24 h, read-out: Inhibition diameter
[17] = n-octanol-water, shake flask, read-out: LogP
[18] = Escherichia coli, 24 h, solution transferred to disc 200 mg cm^−3, read-out: Inhibition diameter
[19] = Escherichia coli, 24 h, solution transferred to disc 400 mg cm^−3, read-out: Inhibition diameter
[20] = Escherichia coli, 24 h, solution transferred to disc 600 mg cm^−3, read-out: Inhibition diameter
[21] = Staphylococcus epidermidis, 24 h, solution transferred to disc 400 mg cm^−3, read-out: Inhibition diameter
[22] = Staphylococcus epidermidis, 24 h, solution transferred to disc 600 mg cm^−3, read-out: Inhibition diameter
[23] = Staphylococcus epidermidis, 24 h, solution transferred to disc 800 mg cm^−3, read-out: Inhibition diameter
[24] = TG, air atmosphere, 10 °C min−1
[25] = deionized water, 25 °C, AS = unmodified acid
[26] = pH 5.4, 25 °C, AS = unmodified acid
[27] = pH 7.4, 25 °C, AS = unmodified acid

Row | SMILES | Inhibition diameter (Escherichia coli; [6]) | Inhibition diameter (Escherichia coli; [7]) | Inhibition diameter (Escherichia coli; [8]) | zone of inhibition at 400000 µg/mL (Micrococcus Luteus; [15]) | zone of inhibition at 600000 µg/mL (Micrococcus Luteus; [16]) | zone of inhibition at 800000 µg/mL (Micrococcus Luteus; [16]) | logP [2, 17] | Inhibition diameter [3, 6] | Inhibition diameter [3, 7] | Inhibition diameter [3, 8] | Inhibition diameter [3, 9] | zone of inhibition at 200000 µg/mL (Escherichia coli; [18]) | zone of inhibition at 400000 µg/mL (Escherichia coli; [19]) | zone of inhibition at 600000 µg/mL (Escherichia coli; [20]) | Inhibition diameter (Micrococcus Luteus; [6]) | Inhibition diameter (Micrococcus Luteus; [7]) | TDTGmax, maximum decomposition temperature ([4]; air atmosphere, 10 °C min−1) | solubility thermodynamic (physchem; pH 5.4, aqueous buffer) | solubility thermodynamic (physchem; pH 7.4, aqueous buffer) | solubility thermodynamic (physchem; water) | further results
1 | CC(C(=O)O)c1cccc(C(=O)c2ccccc2)c1 (racemic) [KETO, (R,S)-ketoprofen, reference compound] | - | - | - | 12.5 ± 0.2 mm | 13.3 ± 0.2 mm | 14.2 ± 0.1 mm | 1.577 ± 0.01 | - | - | - | - |  |  |  |  |  |  |  |  |  | pKa [1]: 4.11; Inhibition diameter (Escherichia coli; [9]): -; Inhibition diameter (Escherichia coli; [10]): -; Inhibition diameter (Escherichia coli; [11]): -; Inhibition diameter (Escherichia coli; [12]): -; zone of inhibition at 25000 µg/mL (Micrococcus Luteus; Micrococcus luteus, 24 h, solution transferred to disc 25 mg cm^−3, read-out: Inhibition diameter): 8.3 ± 0.3 mm; zone of inhibition at 50000 µg/mL (Micrococcus Luteus; Micrococcus luteus, 24 h, solution transferred to disc 50 mg cm^−3, read-out: Inhibition diameter): 9.6 ± 0.2 mm; zone of inhibition at 100000 µg/mL (Micrococcus Luteus; [13]): 10.2 ± 0.2 mm; zone of inhibition at 200000 µg/mL (Micrococcus Luteus; [14]): 11.1 ± 0.4 mm; Inhibition diameter [3, 10]: -; Inhibition diameter [3, 11]: -; Inhibition diameter ([3]; solution transferred to disc 800 mg cm^−3): -; Inhibition diameter [3, 12]: -
2 | O=C(O)c1ccccc1O [SA, salicylic acid, reference compound] | - | - | - | 7.4 ± 0.4 mm | 8.7 ± 0.8 mm | 9.4 ± 0.8 mm |  | - | - | - | - | 6.1 ± 0.1 mm | 6.4 ± 0.1 mm | 11 ± 0.8 mm | - | - | 198.8 °C | 3.862 ± 0.005 mg/mL (≈ 28 mM) | 5.757 ± 0.024 mg/mL (≈ 41.7 mM) | 3.795 ± 0.004 mg/mL (≈ 27.5 mM) | Inhibition diameter (Micrococcus Luteus; [8]): -; Inhibition diameter (Micrococcus Luteus; [9]): -; logP [2]: 1.32 ± 0.018; TTGonset, the onset of the thermal degradation [4]: 146.2 °C; Solubility in Water, as active substance (physchem): 3.795 ± 0.004 gAS dm^−3; Solubility in Phosphate Buffer pH = 5.4, as active substance (physchem; pH 5.4): 3.862 ± 0.005 gAS dm^−3; Solubility in Phosphate Buffer pH = 7.4, as active substance (physchem; pH 7.4): 5.757 ± 0.024 gAS dm^−3; concentration from which the inhibitory effect was observed ([3]; S. epidermidis): ≥ 400 mg cm^−3; zone of inhibition at 400000 µg/mL [3, 21]: 6.2 ± 0.1 mm; zone of inhibition at 600000 µg/mL [3, 22]: 7 ± 0.2 mm; zone of inhibition at 800000 µg/mL [3, 23]: 8.6 ± 0.3 mm
3 | CC[C@H](C)[C@H](N)C(=O)OC(C)C.O=C(O)c1ccccc1O [[L-IleOiPr][SA], L-isoleucine isopropyl ester salicylate] | - | - | - |  | 10.8 ± 0.5 mm | 12.4 ± 0.4 mm | 1.6 ± 0.034 | - | - | - | - | 6.2 ± 0.1 mm | 7.3 ± 0.3 mm | 13.7 ± 0.7 mm | - | - | 202.4 °C | 19.281 ± 0.015 mg/mL | 29.55 ± 0.041 mg/mL | 26.5 ± 0.422 mg/mL | Log(KS) formation constant [1]: 7.25; Inhibition diameter (Micrococcus Luteus; [8]): -; Inhibition diameter (Micrococcus Luteus; [9]): -; Inhibition diameter (Micrococcus Luteus; [10]): -; Solubility in Chloroform (39.1) [5]: ○ (soluble >100 mg cm^−3); Solubility in DMSO (45.1) [5]: ○ (soluble >100 mg cm^−3); Solubility in Dichloromethane (40.7) [5]: ○ (soluble >100 mg cm^−3); Solubility in Diethyl Ether (34.5) [5]: ○ (soluble >100 mg cm^−3); Solubility in Ethanol (59.1) [5]: ○ (soluble >100 mg cm^−3); Solubility in Ethyl Acetate (38.1) [5]: ○ (soluble >100 mg cm^−3); Solubility in Hexane (31.0) [5]: ● (insoluble <33 mg cm^−3); Solubility in Toluene (33.9) [5]: ○ (soluble >100 mg cm^−3); TTGonset, the onset of the thermal degradation [4, 24]: 144.2 °C; Solubility in Water, as active substance (physchem; [25]): 11.793 ± 0.422 gAS dm^−3; Solubility in Phosphate Buffer pH = 5.4, as active substance (physchem; [26]): 8.581 ± 0.015 gAS dm^−3; Solubility in Phosphate Buffer pH = 7.4, as active substance (physchem; [27]): 13.149 ± 0.041 gAS dm^−3; zone of inhibition at 600000 µg/mL [3, 22]: 7.3 ± 0.4 mm; zone of inhibition at 800000 µg/mL [3, 23]: 10.5 ± 0.3 mm; Inhibition diameter [3, 10]: -
4 | CSCC[C@H](N)C(=O)OC(C)C.O=C(O)c1ccccc1O [[L-MetOiPr][SA], L-methionine isopropyl ester salicylate] | - | - |  | 7.3 ± 0.4 mm | 8.1 ± 0.9 mm | 10.5 ± 1 mm | 1.78 ± 0.035 | - | - | - |  | 14.4 ± 0.8 mm | 16.4 ± 0.3 mm | 18.8 ± 0.4 mm | - | - | 205.0 °C | 10.55 ± 0.007 mg/mL | 18.04 ± 0.046 mg/mL | 16 ± 0.533 mg/mL | Log(KS) formation constant [1]: 7.00; zone of inhibition at 100000 µg/mL (Escherichia coli; Escherichia coli, 24 h, solution transferred to disc 100 mg cm^−3, read-out: Inhibition diameter): 7.8 ± 0.2 mm; zone of inhibition at 100000 µg/mL (Micrococcus Luteus; [13]): 6.1 ± 0.1 mm; zone of inhibition at 200000 µg/mL (Micrococcus Luteus; [14]): 6.3 ± 0.1 mm; Solubility in Chloroform (39.1) [5]: ○ (soluble >100 mg cm^−3); Solubility in DMSO (45.1) [5]: ○ (soluble >100 mg cm^−3); Solubility in Dichloromethane (40.7) [5]: ○ (soluble >100 mg cm^−3); Solubility in Diethyl Ether (34.5) [5]: ○ (soluble >100 mg cm^−3); Solubility in Ethanol (59.1) [5]: ○ (soluble >100 mg cm^−3); Solubility in Ethyl Acetate (38.1) [5]: ○ (soluble >100 mg cm^−3); Solubility in Hexane (31.0) [5]: ● (insoluble <33 mg cm^−3); Solubility in Toluene (33.9) [5]: ○ (soluble >100 mg cm^−3); TTGonset, the onset of the thermal degradation [4, 24]: 161.1 °C; Solubility in Water, as active substance (physchem; [25]): 6.749 ± 0.533 gAS dm^−3; Solubility in Phosphate Buffer pH = 5.4, as active substance (physchem; [26]): 4.437 ± 0.007 gAS dm^−3; Solubility in Phosphate Buffer pH = 7.4, as active substance (physchem; [27]): 7.586 ± 0.046 gAS dm^−3; zone of inhibition at 200000 µg/mL ([3]; Staphylococcus epidermidis, 24 h, solution transferred to disc 200 mg cm^−3, read-out: Inhibition diameter): 6.6 ± 0.2 mm; zone of inhibition at 400000 µg/mL [3, 21]: 7.1 ± 0.1 mm; zone of inhibition at 600000 µg/mL [3, 22]: 7.5 ± 0.2 mm; zone of inhibition at 800000 µg/mL [3, 23]: 9.2 ± 0.5 mm
